# Test results as given in patent publication US20250339415A1, “DISULFIDE COMPOUNDS AS MEDICAMENTS” (CYTACOAT AB, priority 2021, published 2025).
# Read-outs that look alike come from different tables or passages of the source.
# Columns and labels:
# Type in all cases: cell-based
# Candida albicans = test: Minimum inhibitory concentration (MIC), visible growth, YPD broth; conditions: for MIC: Candida albicans
# Experimental: (§1) • 1. Using a sterile inoculating loop, transfer bacteria/Candida albicans from frozen stock culture and streak them on a fresh LA plate. • 2. Incubate the plate at 37° C. overnight (o/n) (18-24 h).
# (§2) • 1. Prepare bacterial culture by adding 20 ml Mueller Hinton broth (*) to a 250-ml Erlenmeyer flask with sidearm. • 2. Using a sterile inoculating loop, pick approximately 10 colonies from the o/n bacterial culture and transfer bacteria to the flask. • 3. Incubate the E-flask with bacteria on a rotating shaker at 37° C. until OD590=0.40. This OD should equal an approximate bacterial count of 1×10^8 cfu/ml (**) • This is measured using a colorimeter (or spectrophotometer). Set reference and press R (=reference) first, then measure the bacterial culture by pressing T (=test). • 4. At OD590 0.40, serially dilute the bacterial suspension 1:10 000 in Mueller Hinton broth to obtain a bacterial target concentration of 1×10^4 cfu/ml. Determine the initial inoculation by serially diluting 0.1 ml in 0.9 ml blanks of sterile PBS and plating 0.1 ml aliquots to LA plates, preferably. • 5. Different concentrations of the tested compound are prepared in 0.6-0.8 ml of the final dilution of bacterial suspension and placed in 2-ml test tubes. • 6. Incubate test tubes in an orbital shaker incubator at 37° C. for 24 h.
# (§3) • 7. Analyze visible growth, i.e. “Foggy” or “Clear”. MIC is being defined as the interval between the highest “Foggy” and the lowest “Clear” concentration of the compound.
# (*) When testing Candida albicans, Yeast extract Peptone Dextrose (YPD) broth is being used.
# (**) For Candida albicans it is equal to 1×10^7
# Different concentrations of PDEA were also prepared in Yeast extract Peptone Dextrose (YPD) broth. Candida albicans were inoculated to a concentration of 20 000 CFU/ml and incubated at 37° C. for 24 hours. Readouts were “Clear” and “Foggy”.
# Different concentrations of the quaternary ammonium PDEA (Example 2) were also prepared in Yeast extract Peptone Dextrose (YPD) broth. Candida albicans were inoculated to a concentration of 20 000 CFU/ml and incubated at 37° C. for 24 hours. Readouts were “Clear” and “Foggy”.
# Different concentrations of the Para position-PDEA” is (S)-4-pyridylthio cysteamine were also prepared in Yeast extract Peptone Dextrose (YPD) broth. Candida albicans were inoculated to a concentration of 20 000 CFU/ml and incubated at 37° C. for 24 hours. Readouts were “Clear” and “Foggy”.
# Different concentrations of “Carboxylic acid PDEA” is 3-(2-Pyridyldithio)propanoic acid (CAS: 68617-64-1) were also prepared in Yeast extract Peptone Dextrose (YPD) broth. Candida albicans were inoculated to a concentration of 20 000 CFU/ml and incubated at 37° C. for 24 hours. Readouts were “Clear” and “Foggy”.
# Escherichia coli CFT073 = test: Minimum inhibitory concentration (MIC), visible growth; conditions: for MIC: Escherichia coli
# Experimental: as §1, §2, §3
# (§4) Different concentrations of PDEA (Example 1) in Mueller Hinton medium were prepared. Bacteria were inoculated to a concentration of 20 000 CFU/ml and incubated at 37° C. for 24 hours. Minimum inhibitory concentrations (MICs) were determined by analyzing visible growth, i.e., readouts were “Clear” and “Foggy”.
# (§5) Different concentrations of the quaternary ammonium PDEA (Example 2) in Mueller Hinton medium were prepared. Bacteria were inoculated to a concentration of 20 000 CFU/ml and incubated at 37° C. for 24 hours. Minimum inhibitory concentrations (MICs) were determined by analyzing visible growth, i.e., readouts were “Clear” and “Foggy”.
# (§6) Different concentrations of this compound in Mueller Hinton medium were prepared. Bacteria were inoculated to a concentration of 20 000 CFU/ml and incubated at 37° C. for 24 hours. Minimum inhibitory concentrations (MICs) were determined by analyzing visible growth, i.e., readouts were “Clear” and “Foggy”.
# (§7) Different concentrations of this compound were prepared in Mueller Hinton broth. Bacteria were inoculated to a concentration of 20 000 CFU/ml and incubated at 37° C. for 24 hours. Minimum inhibitory concentrations (MICs) were determined by analyzing visible growth, i.e., readouts were “Clear” and “Foggy”.
# [1] = test system: Staphylococcus aureus B5381; test: as above; conditions: for MIC: Staphylococcus aureus
# Experimental: as §1, §2, §3, §4, §5, §6, §7
# [2] = test system: Enterococcus faecalis #28 (KI, Clinical Isolate); test: as above; conditions: for MIC: Enterococcus faecalis
# Experimental: as §1, §2, §3, §4, §5, §6, §7
# [3] = test system: Enterococcus faecium #11 (KI, Clinical Isolate); test: as above; conditions: for MIC: Enterococcus faecium
# Experimental: as §1, §2, §3, §4, §5, §6, §7
# [4] = test system: Staphylococcus epidermidis Se19 (Clinical Isolate, Jan Ingemar Falk); test: as above; conditions: for MIC: Staphylococcus epidermidis
# Experimental: as §1, §2, §3, §4, §5, §6, §7
# [5] = test system: Klebsiella pneumoniae AO15200; test: as above; conditions: for MIC: Klebsiella pneumoniae
# Experimental: as §1, §2, §3, §4, §5, §6, §7
# [6] = test system: Pseudomonas aeruginosa PA02; test: as above; conditions: for MIC: Pseudomonas aeruginosa
# Experimental: as §1, §2, §3, §4, §5, §6, §7
# [7] = Mueller Hinton, 20 000 CFU/ml, 37° C., 24 hours, read-out: MIC
smiles,measurement,setting,value
"C[N+](C)(C)CCSSc1ccccn1 [Example 2, 2-(2-Pyridyldisulanyl)ethan-(trimethylammonium) chloride]",visible growth readout,Candida albicans; 0.11 mM,Foggy
same,visible growth readout,Candida albicans; 0.225 mM,Foggy
same,visible growth readout,Candida albicans; 0.55 mM,Clear
same,visible growth readout,Candida albicans; 1.1 mM,Clear
same,visible growth readout,Candida albicans; 2.2 mM,Clear
same,visible growth readout,Candida albicans; 4.4 mM,Clear
same,MIC,Candida albicans; 24 h,225 to 550 µM
same,visible growth readout,Escherichia coli CFT073; 0.11 mM,Foggy
same,visible growth readout,Escherichia coli CFT073; 0.225 mM,Foggy
same,visible growth readout,Escherichia coli CFT073; 0.55 mM,Clear
same,visible growth readout,Escherichia coli CFT073; 1.125 mM,Clear
same,MIC,"Escherichia coli CFT073; CFT073, 24 h",225 to 550 µM
same,visible growth readout,[1]; 0.11 mM,Foggy
same,visible growth readout,[1]; 0.225 mM,Foggy
same,visible growth readout,[1]; 0.55 mM,Foggy
same,visible growth readout,[1]; 1.125 mM,Clear
same,MIC,"[1]; B5381, 24 h",550 to 1120 µM
same,visible growth readout,[2]; 0.11 mM,Foggy
same,visible growth readout,[2]; 0.225 mM,Clear
same,visible growth readout,[2]; 0.55 mM,Clear
same,visible growth readout,[2]; 1.125 mM,Clear
same,MIC,[2]; 24 h,110 to 225 µM
same,visible growth readout,[3]; 0.025 mM,Foggy
same,visible growth readout,[3]; 0.055 mM,Foggy
same,visible growth readout,[3]; 0.11 mM,Clear
same,visible growth readout,[3]; 0.225 mM,Clear
same,MIC,[3]; 24 h,55 to 110 µM
same,visible growth readout,[4]; 0.025 mM,Foggy
same,visible growth readout,[4]; 0.055 mM,Foggy
same,visible growth readout,[4]; 0.11 mM,Clear
same,visible growth readout,[4]; 0.225 mM,Clear
same,MIC,[4]; 24 h,55 to 110 µM
same,visible growth readout,[5]; 0.11 mM,Foggy
same,visible growth readout,[5]; 0.225 mM,Foggy
same,visible growth readout,[5]; 0.55 mM,Clear
same,visible growth readout,[5]; 1.125 mM,Clear
same,MIC,"[5]; AO15200, 24 h",225 to 550 µM
same,visible growth readout,[6]; 0.11 mM,Foggy
same,visible growth readout,[6]; 0.225 mM,Foggy
same,visible growth readout,[6]; 0.55 mM,Foggy
same,visible growth readout,[6]; 1.125 mM,Clear
same,MIC,"[6]; PA02, 24 h",550 to 1120 µM
"NCCSSc1ccncc1 [Example 3, (S)-4-pyridylthio cysteamine]",visible growth readout,Candida albicans; 0.01 mM,Foggy
same,visible growth readout,Candida albicans; 0.05 mM,Foggy
same,visible growth readout,Candida albicans; 0.1 mM,Foggy
same,visible growth readout,Candida albicans; 0.2 mM,Foggy
same,visible growth readout,Candida albicans; 0.4 mM,Foggy
same,visible growth readout,Candida albicans; 0.8 mM,Foggy
same,visible growth readout,Candida albicans; 1.6 mM,Foggy
same,visible growth readout,Candida albicans; 3.2 mM,Clear
same,MIC,"Candida albicans; YPD broth, 20 000 CFU/ml, 37° C., 24 hours, read-out: MIC",1600 to 3200 µM
same,visible growth readout,Escherichia coli CFT073; 0.01 mM,Foggy
same,visible growth readout,Escherichia coli CFT073; 0.05 mM,Foggy
same,visible growth readout,Escherichia coli CFT073; 0.1 mM,Foggy
same,visible growth readout,Escherichia coli CFT073; 0.2 mM,Foggy
same,visible growth readout,Escherichia coli CFT073; 0.4 mM,Clear
same,visible growth readout,Escherichia coli CFT073; 0.8 mM,Clear
same,visible growth readout,Escherichia coli CFT073; 1.6 mM,Clear
same,visible growth readout,Escherichia coli CFT073; 3.2 mM,Clear
same,MIC,"Escherichia coli CFT073; CFT073, Mueller Hinton, 20 000 CFU/ml, 37° C., 24 hours, read-out: MIC",200 to 400 µM
same,visible growth readout,[1]; 0.01 mM,Foggy
same,visible growth readout,[1]; 0.05 mM,Foggy
same,visible growth readout,[1]; 0.1 mM,Foggy
same,visible growth readout,[1]; 0.2 mM,Foggy
same,visible growth readout,[1]; 0.4 mM,Clear
same,visible growth readout,[1]; 0.8 mM,Clear
same,visible growth readout,[1]; 1.6 mM,Clear
same,visible growth readout,[1]; 3.2 mM,Clear
same,MIC,"[1]; B5381, Mueller Hinton, 20 000 CFU/ml, 37° C., 24 hours, read-out: MIC",200 to 400 µM
same,visible growth readout,[2]; 0.01 mM,Foggy
same,visible growth readout,[2]; 0.05 mM,Foggy
same,visible growth readout,[2]; 0.1 mM,Foggy
same,visible growth readout,[2]; 0.2 mM,Foggy
same,visible growth readout,[2]; 0.4 mM,Clear
same,visible growth readout,[2]; 0.8 mM,Clear
same,visible growth readout,[2]; 1.6 mM,Clear
same,visible growth readout,[2]; 3.2 mM,Clear
same,MIC,[2]; [7],200 to 400 µM
same,visible growth readout,[3]; 0.01 mM,Foggy
same,visible growth readout,[3]; 0.05 mM,Foggy
same,visible growth readout,[3]; 0.1 mM,Foggy
same,visible growth readout,[3]; 0.2 mM,Clear
same,visible growth readout,[3]; 0.4 mM,Clear
same,visible growth readout,[3]; 0.8 mM,Clear
same,visible growth readout,[3]; 1.6 mM,Clear
same,visible growth readout,[3]; 3.2 mM,Clear
same,MIC,[3]; [7],100 to 200 µM
same,visible growth readout,[4]; 0.01 mM,Foggy
same,visible growth readout,[4]; 0.05 mM,Foggy
same,visible growth readout,[4]; 0.1 mM,Foggy
same,visible growth readout,[4]; 0.2 mM,Clear
same,visible growth readout,[4]; 0.4 mM,Clear
same,visible growth readout,[4]; 0.8 mM,Clear
same,visible growth readout,[4]; 1.6 mM,Clear
same,visible growth readout,[4]; 3.2 mM,Clear
same,MIC,[4]; [7],100 to 200 µM
same,visible growth readout,[5]; 0.01 mM,Foggy
same,visible growth readout,[5]; 0.05 mM,Foggy
same,visible growth readout,[5]; 0.1 mM,Foggy
same,visible growth readout,[5]; 0.2 mM,Foggy
same,visible growth readout,[5]; 0.4 mM,Clear
same,visible growth readout,[5]; 0.8 mM,Clear
same,visible growth readout,[5]; 1.6 mM,Clear
same,visible growth readout,[5]; 3.2 mM,Clear
same,MIC,"[5]; AO15200, Mueller Hinton, 20 000 CFU/ml, 37° C., 24 hours, read-out: MIC",200 to 400 µM
same,visible growth readout,[6]; 0.01 mM,Foggy
same,visible growth readout,[6]; 0.05 mM,Foggy
same,visible growth readout,[6]; 0.1 mM,Foggy
same,visible growth readout,[6]; 0.2 mM,Foggy
same,visible growth readout,[6]; 0.4 mM,Foggy
same,visible growth readout,[6]; 0.8 mM,Clear
same,visible growth readout,[6]; 1.6 mM,Clear
same,visible growth readout,[6]; 3.2 mM,Clear
same,MIC,"[6]; PA02, Mueller Hinton, 20 000 CFU/ml, 37° C., 24 hours, read-out: MIC",400 to 800 µM
